Experimental data reported in patent US5112866A, “Ethanesulfonamide derivatives” (Ortho Pharmaceutical Corporation, priority 1989, dated 1992).
pIC50: −log10 of the molar value. Like-named read-outs stand apart in the source and are kept apart here.

How the values were obtained:
[1] = test system: Rabbit Isolated Parietal Cells; test: Inhibition of 14C-aminopyrine accumulation in stimulated rabbit isolated parietal cells; assay type: cell-based; conditions: Oryctolagus cuniculus, 37° C.
Source text: Pharmacology of the Ethanesulfonamide Compounds - Rabbit Isolated Parietal Cells
Parietal cells were isolated from the fundic mucosa of rabbit stomachs by a four-stage collagenase digestion Process. The supernatant fraction from the last two stages of this Process contained the individual parietal cells. This cell suspension was centrifuged and reconstituted in a modified Hank's buffer to contain 2-3×10^6 cells/ml. […] The accumulation is stimulated by histamine and is blocked by H2 antagonists. Accumulation of ^14 C-AP is also stimulated by dibutyryl cAMP (dbcAMP). The cells were incubated with 0.5×10^6 cpm ^14 C-AP, with various concentrations of histamine or dbcAMP, […] isobutylmethylxanthine, and test compound added in a 20 μl volume of buffer or dimethylsulfoxide. The flasks were incubated in a shaking water bath at 37° C. Two 0.5 ml aliquots were then taken from each flask and cell pellets were collected by centrifugation. The pellets were solubilized with Protosol (NEN) and radioactivity determined by liquid scintillation spectrometry.
The concentration of compound required to inhibit ^14 C-AP accumulation in the stimulated parietal cell by 50% (IC50) was determined.

Gastric Secretion = test: Inhibition of Gastric Secretion in Rat (pylorus ligated); assay type: in vivo, rat (male Charles River); conditions: intraduodenal, four hours after pylorus ligation
Method: Inhibition of Gastric Secretion in Rat
Male Charles River rats weighing 150-300 grams were deprived of food but not water for 18-24 hours prior to use. Water was withheld during the experiment. The rats were weighed, anesthetized with ether and the pylorus ligated according to the method of Shay, H. et al., Gastroenterol. 26, 906 (1954). Test compounds were suspended in a 0.5% aqueous solution of methylcellulose (15 cps) and administered intraduodenally (i.d.) at the time of ligation. The rats were housed two per cage and sacrificed with CO2 four hours after ligation. The stomachs were removed and contents emptied into a graduated centrifuge tube. The tubes were centrifuged, the volume of gastric juice recorded, and any samples obviously contaminated by feces, food or blood eliminated. A 1 ml aliquot of gastric juice was titrated with 0.1 N NaOH to a pH of 7.0-7.4.
The volume of gastric juice secreted, the acid concentration, and the product of the volume times the concentration, i.e., the total amount of acid secreted, were statistically compared by a student's t-test using the pooled error variance.

bone protein = test: In vivo [3H]Proline incorporation into bone protein, bone mitogen activity in the aged Fisher 344 rat; set-up: species or system rat (female Fisher 344); conditions: daily intraperitoneal, sesame oil
Method: (§1) Pharmacology of the Ethenesulfonyl Fluoride Compounds--[…] Bone Mitogen Activity in the Aged Fisher 344 Rat
(§2) Animals: Female Fisher 344 rats, 12 months of age, were housed in climate controlled light/dark (12-hour cycle) rooms and given food and water ad libitum.
(§3) Test Compounds: The test compounds were suspended in sesame oil and administered daily via intraperitoneal injections; vehicle treated rats were administered sesame oil along (2 mL/kg).
In vivo [^3 H]Proline Incorporation: [^3 H]Proline incorporation into bone protein was carried out as previously described (Reddi and Huggins, 1975). [^3 H]Proline was injected intraperitoneally at a dose of 0.5 μCi/g body weight in 0.9% NaCl. Four hours after the injection, rats were bled by cardiac puncture and then killed by CO2 asphyxiation and the tibia removed and the radioactivity quantified as in Example 28.

[2] = test system: Mouse osteoblastic-line cells (MC3T3-El); test: Mouse Osteoblast-line Cell Proliferation (3H-thymidine); assay type: cell-based; conditions: 0.1% FBS
Method: Pharmacology of the Ethenesulfonyl Fluoride Compounds--In Vitro Mouse Osteoblast-line Cell Proliferation
Reagents: Mouse osteoblastic-line cells (MC3T3-El) were plated in Dulbeccos Modified Eagles Medium (DMEM) with 25 mM Hepes Buffer, L-Glutamine, D-Glucose(4.5 gm/1) supplemented with 10% fetal bovine sera, Penicillin (100 units/ml) and Streptomycin ([…]) (Penicillin-Streptomycin liquid) and sodium pyruvate (10 μM final concentration). ^3 H-Thymidine (6.7 Ci/mmole) was diluted in DMEM media without FBS and filter sterilized. An aliquot of this solution was delivered to each culture well to a final concentration of ^3 H-thymidine of 0.4 μCi per well (2 μCi/ml).
Test Preparations: Solutions of the test compound were made on the day before incubation. These compounds were solubilized in either ethanol or DMSO at a concentration of 100 mM containing 0.1% FBS. The solutions were filter sterilized and then sterile serial dilutions were performed with DMEM media containing 0.1% FBS.
Osteoblast line cells were plated into 96 well culture plates, 1600 cells in 100 μL per well in DMEM with 25 mM Hepes Buffer, L-Glutamine, D-Glucose (4.5 gm/L) supplemented with 10% fetal bovine sera, Penicillin (100 units/mL) and Streptomycin (100 μg/mL) and sodium Pyruvate (10 μM final concentration). The media was replaced with DMEM containing no FBS and the cells were then incubated for an additional 24 hours. The following day, test compounds were added and screened at concentrations ranging from 10^-10 to 10^-5 M in the Presence of 0.1% FBS. The cells were then incubated an additional 20 hours. At this time 0.4 μ/Ci of 3H-thymidine was added to each culture well and the cells were incubated an additional 4 hours. The cells were then harvested with a Skatron Cell Harvester onto a glass fiber filter and washed with water, %5 trichloroacetic acid (TCA) and then 95% ethanol. The filters were then processed and counted on the LKB beta plate scintillation counter.

tibia = test: In vivo [3H]Tetracycline incorporation into tibia, bone mitogen activity in the aged Fisher 344 rat; set-up: species or system rat (female Fisher 344); conditions: daily intraperitoneal, sesame oil
Method: as §1, §2, §3
In vivo [^3 H]Tetracycline Incorporation: Tritiated tetracycline, which is rapidly concentrated in the growing skeleton, can be used as a relative measure of bone forming surface in vivo. [^3 H]Tetracycline was injected intraperitoneally at a dose of 0.125 μCi/g body weight in a 0.9% NaCl solution. Two hours after injection, rats were bled by cardiac puncture and then killed by CO2 asphyxiation and the tibia removed and cleaned of tissue and marrow. The tibia are homogenized and digested in 2 N NaOH for 2 hours. The precipitate is washed and then hydrolyzed in 6N Hcl. An aliquot of the resulting supernatant is analyzed for tritiutum.

osteoblasts = conditions: Farley, et al., Science, 1983; cited from earlier work
[3] = cited from earlier work
[4] = 14C-AP accumulation stimulated by dibutyryl cAMP, read-out: IC50 (dbcAMP)
[5] = 14C-AP accumulation stimulated by histamine, read-out: IC50 (H)

Row | SMILES | pIC50 [1, 4] | pIC50 [1, 5] | % Reduction of Total Acid Output (Gastric Secretion; Dose 20 MPK) [%] | Mouse Osteoblast-line Cell Proliferation [Expressed as a Percent of Control] ([2]; 0.001 μM) | Mouse Osteoblast-line Cell Proliferation [Expressed as a Percent of Control] ([2]; 0.01 μM) | Mouse Osteoblast-line Cell Proliferation [Expressed as a Percent of Control] ([2]; 0.1 μM) | Mouse Osteoblast-line Cell Proliferation [Expressed as a Percent of Control] ([2]; 1.0 μM) | Mouse Osteoblast-line Cell Proliferation [Expressed as a Percent of Control] ([2]; 10 μM) | Percent Incorporation of [3H]Tetracycline of Control (tibia; 50 mg/Kg) | further results
1 | COc1cc(NCCS(=O)(=O)F)c(C(C)=O)cc1OC [Example 14] |  |  |  | 120.9% of Control | 159.5% of Control | 125.3% of Control | 170.3% of Control | 180.3% of Control | 119.6 Percent Incorporation of Contr | Percent Incorporation of [3H]Proline of Control (bone protein; 15 mg/Kg): 100.7 Percent Incorporation of Contr; Percent Incorporation of [3H]Proline of Control (bone protein; 50 mg/Kg): 118.1 Percent Incorporation of Contr; Percent Incorporation of [3H]Proline of Control (bone protein; 150 mg/Kg): 121.0 Percent Incorporation of Contr
2 | O=S(=O)(F)CCNc1ccc(Cl)cc1 [Example 15] |  |  |  | 129.6% of Control | 119.9% of Control | 123.5% of Control | 93.4% of Control | 106.7% of Control | 125.1 Percent Incorporation of Contr | Percent Incorporation of [3H]Tetracycline of Control (tibia; 15 mg/Kg): 118.0 Percent Incorporation of Contr; Percent Incorporation of [3H]Tetracycline of Control (tibia; 25 mg/Kg): 114.0 Percent Incorporation of Contr
3 | [F-].[Na+] [sodium fluoride, Sodium fluoride] |  |  |  |  |  |  |  |  |  | proliferation and activity of bone forming cells, osteoblasts (osteoblasts): causes proliferation and increases the activity of bone forming cells, osteoblasts; rate of bone fracture ([3]; fluoride treatment, Riggs, et al., N. Engl. J. Med., 1982): significantly decreased; adverse reactions ([3]; in vivo): gastrointestinal side effects (nausea, vomiting, diarrhea and bleeding) and rheumatic complications (synovitis and plantar fascial syndrome); bone formation and bone mass ([3]; osteoporosis): increases bone formation and leads to an increase in bone mass in osteoporosis

Further lines, with some results ahead:

Row | pIC50 [1, 4] | pIC50 [1, 5] | SMILES | % Reduction of Total Acid Output (Gastric Secretion; Dose 20 MPK) [%] | Mouse Osteoblast-line Cell Proliferation [Expressed as a Percent of Control] ([2]; 0.001 μM) | Mouse Osteoblast-line Cell Proliferation [Expressed as a Percent of Control] ([2]; 0.01 μM) | Mouse Osteoblast-line Cell Proliferation [Expressed as a Percent of Control] ([2]; 0.1 μM) | Mouse Osteoblast-line Cell Proliferation [Expressed as a Percent of Control] ([2]; 1.0 μM) | Mouse Osteoblast-line Cell Proliferation [Expressed as a Percent of Control] ([2]; 10 μM) | Percent Incorporation of [3H]Tetracycline of Control (tibia; 50 mg/Kg) | further results
4 | 6.51 | 6.80 | O=S(=O)(CCNc1ccc(Cl)c(C(F)(F)F)c1)NCCCOc1cccc(CN2CCCCC2)c1 [Example 9, 2-[(4-Chloro-3-trifluoromethylphenyl)amino]-N-[3-[3-(piperidinomethyl)phenoxy]propyl]ethanesulfonamide] |  |  |  |  |  |  |  | % Reduction of Total Acid Output (Gastric Secretion; Dose 40 MPK): 24.7%
5 | 6.64 | 6.55 | CCCCc1ccc(NCCS(=O)(=O)NCCCOc2cccc(CN3CCCCC3)c2)cc1 [Example 10, 2-[(4-Butylphenyl)amino]-N-[3-[3-(piperidinomethyl)phenoxy]propyl]ethanesulfonamide] | 23.3 |  |  |  |  |  |  | 
6 | 6.34 | 7.24 | CC1CCN(Cc2cccc(OCCCNS(=O)(=O)CCNc3ccc(Cl)c(Cl)c3)c2)CC1 [Example 11, 2-[(3,4-Dichlorophenyl)amino]-N-[3-[3-[(4-methylpiperidin-1-yl)methyl]-phenoxy]propyl]ethanesulfonamide] | 29.0 |  |  |  |  |  |  | 
